Results taken from patent publication US5998427A, “Androstenones” (Glaxo Wellcome Inc., priority 1998, dated 1999).

Columns and labels:
[1] = target: T1, Human Adrenal 3BHSD (Homo sapiens, UniProt P26439); assay: Inhibition of human adrenal 3β-hydroxy-Δ^5-steroid dehydrogenase/3-keto-Δ^5-steroid isomerase (conversion of DHEA to androstenedione, human adrenal microsomes); assay type: biochemical; conditions: pH 7.5, DHEA substrate, 1 mM NAD^+, 1 to 60 minutes
T1 construct: microsomes derived from human adrenal tissues; from tissue; host or cells: human adrenal tissue (microsomes)
T1 sequence (P26439 1-372): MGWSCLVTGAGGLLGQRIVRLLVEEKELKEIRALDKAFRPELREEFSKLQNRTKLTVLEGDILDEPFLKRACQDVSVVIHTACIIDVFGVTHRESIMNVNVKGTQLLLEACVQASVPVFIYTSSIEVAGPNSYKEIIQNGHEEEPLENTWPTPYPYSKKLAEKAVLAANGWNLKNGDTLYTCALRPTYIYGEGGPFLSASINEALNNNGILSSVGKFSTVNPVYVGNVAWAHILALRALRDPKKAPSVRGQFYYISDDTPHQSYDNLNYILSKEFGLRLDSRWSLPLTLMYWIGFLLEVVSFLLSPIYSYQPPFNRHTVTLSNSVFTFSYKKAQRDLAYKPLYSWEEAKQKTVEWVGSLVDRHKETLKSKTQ
Method: Enzyme activities are measured using microsomes derived from human adrenal tissues. Microsomes were prepared by homogenization of the tissue followed by differential centrifugation of the homogenate. Microsome extracts were incubated with varying concentrations of dehydroepiandrosterone (DHEA), 1 mM NAD^+, and varying amounts of the compounds of Formula (I), i.e. a test compound, in pH 7.5 buffer for a period of time within the range of 1 to 60 minutes. Corresponding incubations were carried out with no test compound as a control study. The percentage of conversion of DHEA to androstenedione in the presence of test compounds compared to the corresponding conversion in the control study was estimated using HPLC with radiochemical detection.

[2] = test system: bovine adrenal 3β-hydroxy-Δ^5 -steroid dehydrogenase/3-keto-Δ^5 -steroid isomerase (3BHSD); conditions: literature (Tan; Brandt and Levy); cited from earlier work
[3] = test system: porcine granulosa cell 3β-hydroxy-Δ^5 -steroid dehydrogenase/3-keto-Δ^5 -steroid isomerase (3BHSD); conditions: literature (Tan; Brandt and Levy); cited from earlier work
[4] = literature (McConnell; Rasmusson); cited from earlier work
[5] = target: T2, human type 2 5α-reductase (Homo sapiens, UniProt P31213); assay: Inhibition of human type 2 5α-reductase (conversion of testosterone to DHT, microsomes); assay type: biochemical; conditions: pH 6.0, 8 nM testosterone, 20 min preincubation, 20-40 min; read-out: IC50 Human Type 2 5AR
T2 construct: made in house; host or cells: recombinant baculovirus infected SF9 cells (microsomes); prostate tissue of BPH patients is printed as an alternative
T2 sequence (P31213 1-254): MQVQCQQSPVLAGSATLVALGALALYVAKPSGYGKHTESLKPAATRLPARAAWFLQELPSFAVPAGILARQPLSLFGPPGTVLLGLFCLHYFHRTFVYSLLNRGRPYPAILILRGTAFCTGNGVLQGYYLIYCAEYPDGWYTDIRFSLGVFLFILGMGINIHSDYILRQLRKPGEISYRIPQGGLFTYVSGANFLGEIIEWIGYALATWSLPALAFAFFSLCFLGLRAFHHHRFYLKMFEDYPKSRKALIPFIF
Method: (§1) Enzyme activities may be determined using microsomes derived from: 1) prostate tissue from benign prostatic hyperplasia (BPH) patients; 2) recombinant baculovirus infected SF9 cells that express human type 1 5α-reductase; or 3) recombinant baculovirus infected SF9 cells that express human type 2 5α-reductase. Microsomes were prepared by homogenization of the tissue or cells, followed by differential centrifugation of the homogenate. Microsome extracts were incubated with varying concentrations of [1,2,6,7-^3 H]-testosterone, 1 mM NADPH, and varying amounts of the compounds of formula (I,) i.e. a test compound, in buffer containing a NADPH regenerating system capable of maintaining NADPH concentrations for a period of time within the range 0.5-240 minutes. Corresponding incubations were carried out with no test compound as a control study.
(§2) For type 1 IC50 measurements, assay components except testosterone were preincubated for 10 minutes at pH 7.0, and following the addition of 100 nM testosterone the assays were allowed to proceed for 10-120 minutes. For type 2 IC50 measurements, assay components except testosterone were preincubated for 20 minutes at pH 6.0, and following the addition of 8 nM testosterone the assays were allowed to proceed for 20-40 minutes. […]

[6] = target: T3, human type 1 5α-reductase (Homo sapiens, UniProt P18405); assay: Inhibition of human type 1 5α-reductase (conversion of testosterone to DHT, microsomes of baculovirus infected SF9 cells); assay type: biochemical; conditions: pH 7.0, 100 nM testosterone, 10 min preincubation, 10-120 min; read-out: IC50 Human Type 1 5AR
T3 construct: made in house; host or cells: recombinant baculovirus infected SF9 cells (microsomes)
T3 sequence (P18405 1-259): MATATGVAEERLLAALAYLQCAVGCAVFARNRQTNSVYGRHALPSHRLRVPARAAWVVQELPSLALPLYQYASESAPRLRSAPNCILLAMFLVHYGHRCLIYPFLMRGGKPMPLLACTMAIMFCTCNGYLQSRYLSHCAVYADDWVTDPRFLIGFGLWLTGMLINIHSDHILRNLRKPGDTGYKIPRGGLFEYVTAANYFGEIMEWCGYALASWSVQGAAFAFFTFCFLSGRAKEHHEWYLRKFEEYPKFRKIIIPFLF
Method: as §1, §2

| SMILES | Ki [1] [nM] | further results |
| --- | --- | --- |
| CN1C(=O)CC[C@]2(C)[C@H]3CC[C@]4(C)[C@@H](C(=O)NC5(c6ccc(Cl)cc6)CCCC5)CC[C@H]4[C@@H]3CC[C@@H]12 [Compound 2, 17β-N-1-(4-Chlorophenyl)cyclopentylcarbamoyl-4-methyl-4-aza-5α-androstan-3-one] | 10 to 1000 | – |
| CN1C(=O)CC[C@]2(C)[C@H]3CC[C@]4(C)[C@@H](C(=O)Nc5cc(C(F)(F)F)ccc5C(F)(F)F)CC[C@H]4[C@@H]3CC[C@@H]12 [Compound 23, 17β-N-(2,5-bis(Trifluoromethyl))phenylcarbamoyl-4-methyl-4-aza-5α-androstan-3-one] | 10 to 1000 | – |
| CN1C(=O)CC[C@]2(C)[C@H]3CC[C@]4(C)[C@@H](C(=O)Nc5cc(C(C)(C)C)ccc5C(C)(C)C)CC[C@H]4[C@@H]3CC[C@@H]12 [Compound 29, 17β-N-(2,5-Di-t-butyl)phenylcarbamoyl-4-methyl-4-aza-5α-androstan-3-one] | 10 to 1000 | – |
| CCN(CC)C(=O)[C@H]1CC[C@H]2[C@@H]3CC[C@H]4N(C)C(=O)CC[C@]4(C)[C@H]3CC[C@]12C [Compound 4-MA] | – | inhibition of bovine adrenal 3BHSD [2]: potent inhibition; inhibition of porcine granulosa cell 3BHSD [3]: potent inhibition; hepatotoxicity [4]: hepatotoxicity |
| CC(C)(C)c1ccc(C(F)(F)F)cc1NC(=O)[C@H]1CC[C@H]2[C@@H]3CC[C@H]4NC(=O)C=C[C@]4(C)[C@H]3CC[C@]12C [Compound 24, 17β-N-(2-t-Butyl-5-trifluoromethyl)phenylcarbamoyl-4-aza-5α-androst-1-en-3-one] | – | IC50 [5]: 1 to 10 nM |
| CN1C(=O)CC[C@]2(C)[C@H]3CC[C@]4(C)[C@@H](C(=O)Nc5cc(C(F)(F)F)ccc5C(C)(C)C)CC[C@H]4[C@@H]3CC[C@@H]12 [Compound 26, 17β-N-(2-t-Butyl-5-trifluoromethyl)phenylcarbamoyl-4-methyl-4-aza-5α-androstan-3-one] | 10 to 1000 | – |
| CC(C)(C)c1ccc(C(C)(C)C)c(NC(=O)[C@H]2CC[C@H]3[C@@H]4CC[C@H]5NC(=O)C=C[C@]5(C)[C@H]4CC[C@]23C)c1 [Compound 27, 17β-N-(2,5-Di-t-butyl)phenylcarbamoyl-4-aza-5α-androst-1-en-3-one] | 10 to 1000 | – |
| C[C@]12C=CC(=O)N[C@@H]1CC[C@@H]1[C@@H]2CC[C@]2(C)[C@@H](C(=O)NC3(c4ccc5c(c4)OCO5)CCCCC3)CC[C@@H]12 [Compound 12, 17β-N-1-(3,4-Methylenedioxyphenyl)cyclohexylcarbamoyl-4-aza-5α-androst-1-en-3-one] | 10 to 1000 | IC50 [6]: 10 to 1000 nM |
